Test results taken from US12357711B2, “PSMA binding dual mode radiotracer and therapeutic” (Technische Universität München, priority 2019, dated 2025).

Tested on: SCID mice
Test: Preclinical dosimetry from biodistribution in mice, extrapolated to 70-kg Standard Adult (OLINDA/EXM 1.0)
Format: in vivo
Details: […] bladder voiding interval
Description: 3-5 mice were injected per timepoint with a mean 25.6±3.6 MBq of 18F-rhPSMA-7 and 28.5±4.8 MBq of 18F-rhPSMA-7.3, respectively. Mice, severe combined immunodeficiency (SCID) were used for the experiments.
Mice were sacrificed at the following timepoints: • ^18F-rhPSMA-7: 10, 20, 40, 60, 120 and 180 minutes after administration. • ^18F-rhPSMA-7.3: 10, 60, 120, 180 and 300 minutes after administration.
Urine, blood, heart, lung, spleen, pancreas, liver, stomach (emptied), small intestine (emptied), large intestine (emptied), kidneys, bladder, testis, fat, muscle (partial, femoral), femur, tail and brain. Urine was collected with a pipette in the CO2 gas chamber. In case of missing urination in the chamber the bladder was aspirated with an insulin syringe. Blood was withdrawn instantly after sacrifice with an insulin syringe from the heart. All other tissues and organs were dissected and transferred directly in plastic containers.
The counting rates of measurement samples were automatically corrected for decay. The radioactivity distribution ratios (unit: percentage of the injected dose (% ID) in the measurement samples were determined using the equation below. The sum of the counting rates from all measurement samples obtained from one mouse was designated as the counting rate for administrated radioactivity.
The radioactivity distribution ratio per unit weight of the measurement sample (unit: % ID/g) excluding urine and feces samples was determined by using the equation below. The weight of the measurement sample was determined by subtraction of the empty measurement container from the container including the sample.
For consistency of statistical calculations for each radiotracer the same number of time-points for ^18F-rhPSMA-7 and ^18F-rhPSMA-7.3 was used. Therefore, for ^18F-rhPSMA-7 the 10 min and 20 min time points were combined creating a 15 min endpoint.
The time-integral of activity for the accumulation in the significant source organs (AUCs) were generated both with numerical integration and physical decay according to J Juan et al., Journal of Pharmaceutical Sciences, 1993, 82:762-763.
In brief, to calculate a human dosimetry from the biodistribution in the mice, an extrapolation was necessary to account for the differences between the animals and humans. Normal-organ radiation doses were estimated for the 70-kg Standard Adult anatomic model using time-depending organ activity concentrations (in percent of the injected dose per gram, % ID/g) and total-body activities measured in the biodistribution studies in mice.
Tissue activity concentrations in mice were converted to tissue fractional activities in the 70-kg Standard Adult using the relative fractional organ masses in the Standard Adult and the “standard” 25-gramm mouse. Time-dependent total-body activity was fit to an exponential function and the difference between the injected activity and the total-body activity was assumed to be excreted to the urine because activity concentrations in the liver and GI tracer were low at all time points studied.
Organ residence time was calculated by numerical integration using the trapezoidal rule and the rest-of-body ^18F residence times was calculated as the difference between the total-body residence time and the sum of the organ and urine residence times. The bladder contents residence time was estimated using the dynamic voiding model in the OLINDA/EXM 1.0 dosimetry software. Finally, the Standard Adult mean organ dose equivalents (in mSv/MBq) and effective dose (also in mSv/MBq) were then calculated using OLIN DA/EXM 1.0.
Final calculation of radiation absorbed dose and dosimetry from biodistribution in mice: The tissues or organs in which a significant accumulation of radioactivity occurs (i.e., source organ) were kidney, spleen, lung, liver and heart. With respect to activity accumulation and clearance, a rapid clearance from blood and clearance to urine but relatively slow build-up in kidney was found.

For CC(C)(C)[Si](F)(c1ccc(C(=O)NC[C@@H](NC(=O)CC[C@@H](C(=O)O)N2CCN(CC(=O)[O-])CCN(CC(=O)[O-])CCN(CC(=O)[O-])CC2)C(=O)N[C@H](CCCCNC(=O)CCC(=O)NCCC[C@@H](NC(=O)CC[C@H](NC(=O)N[C@@H](CCC(=O)O)C(=O)O)C(=O)O)C(=O)O)C(=O)O)cc1)C(C)(C)C.[Ga+3] [rhPSMA7.3, [^19F][^natGa]D-Dap-S-DOTAGA-rhPSMA7], the “Adrenals ED Cont.” value was 5.52E−05 mSv/MBq, the “Adrenals EDE Cont.” value was 0.00E000 mSv/MBq and the “Adrenals dose Alpha” value was 0.00E000 mSv/MBq. The “Adrenals dose Beta” value was 3.12E−03 mSv/MBq, the “Adrenals dose Photon” value was 7.93E−03 mSv/MBq and the “Adrenals dose Total” value was 1.10E−02 mSv/MBq. The “Brain ED Cont.” value was 3.59E−05 mSv/MBq, the “Brain EDE Cont.” value was 0.00E000 mSv/MBq and the “Brain dose Alpha” value was 0.00E000 mSv/MBq. The “Brain dose Beta” value was 3.12E−03 mSv/MBq, the “Brain dose Photon” value was 4.07E−03 mSv/MBq and the “Brain dose Total” value was 7.19E−03 mSv/MBq. For the same compound, the “Breasts ED Cont.” value was 3.34E−04 mSv/MBq, the “Breasts EDE Cont.” value was 1.00E−03 mSv/MBq and the “Breasts dose Alpha” value was 0.00E000 mSv/MBq. For the same compound, the “Breasts dose Beta” value was 3.12E−03 mSv/MBq, the “Breasts dose Photon” value was 3.55E−03 mSv/MBq and the “Breasts dose Total” value was 6.67E−03 mSv/MBq. For the same compound, the “Gallbladder Wall ED Cont.” value was 0.00E000 mSv/MBq, the “Gallbladder Wall EDE Cont.” value was 0.00E000 mSv/MBq and the “Gallbladder Wall dose Alpha” value was 0.00E000 mSv/MBq. The “Gallbladder Wall dose Beta” value was 3.12E−03 mSv/MBq, the “Gallbladder Wall dose Photon” value was 7.46E−03 mSv/MBq and the “Gallbladder Wall dose Total” value was 1.06E−02 mSv/MBq. The “Heart Wall ED Cont.” value was 0.00E000 mSv/MBq, the “Heart Wall EDE Cont.” value was 0.00E000 mSv/MBq and the “Heart Wall dose Alpha” value was 0.00E000 mSv/MBq. For the same compound, the “Heart Wall dose Beta” value was 1.32E−03 mSv/MBq, the “Heart Wall dose Photon” value was 5.39E−03 mSv/MBq and the “Heart Wall dose Total” value was 6.71E−03 mSv/MBq. For the same compound, the “Kidneys ED Cont.” value was 3.59E−04 mSv/MBq, the “Kidneys EDE Cont.” value was 4.31E−03 mSv/MBq and the “Kidneys dose Alpha” value was 0.00E000 mSv/MBq. The “Kidneys dose Beta” value was 5.11E−02 mSv/MBq, the “Kidneys dose Photon” value was 2.07E−02 mSv/MBq and the “Kidneys dose Total” value was 7.18E−02 mSv/MBq. For the same compound, the “LLI Wall ED Cont.” value was 1.91E−03 mSv/MBq, the “LLI Wall EDE Cont.” value was 9.53E−04 mSv/MBq and the “LLI Wall dose Alpha” value was 0.00E000 mSv/MBq. The “LLI Wall dose Beta” value was 3.12E−03 mSv/MBq, the “LLI Wall dose Photon” value was 1.28E−02 mSv/MBq and the “LLI Wall dose Total” value was 1.59E−02 mSv/MBq. The “Liver ED Cont.” value was 3.00E−04 mSv/MBq, the “Liver EDE Cont.” value was 0.00E000 mSv/MBq and the “Liver dose Alpha” value was 0.00E000 mSv/MBq. For the same compound, the “Liver dose Beta” value was 9.70E−04 mSv/MBq, the “Liver dose Photon” value was 5.02E−03 mSv/MBq and the “Liver dose Total” value was 5.99E−03 mSv/MBq. The “Lungs ED Cont.” value was 7.93E−04 mSv/MBq, the “Lungs EDE Cont.” value was 7.93E−04 mSv/MBq and the “Lungs dose Alpha” value was 0.00E000 mSv/MBq. For the same compound, the “Lungs dose Beta” value was 1.95E−03 mSv/MBq, the “Lungs dose Photon” value was 4.66E−03 mSv/MBq and the “Lungs dose Total” value was 6.61E−03 mSv/MBq. For the same compound, the “Muscle ED Cont.” value was 4.83E−05 mSv/MBq, the “Muscle EDE Cont.” value was 0.00E000 mSv/MBq and the “Muscle dose Alpha” value was 0.00E000 mSv/MBq. The “Muscle dose Beta” value was 3.12E−03 mSv/MBq, the “Muscle dose Photon” value was 6.55E−03 mSv/MBq and the “Muscle dose Total” value was 9.67E−03 mSv/MBq. For the same compound, the “Osteogenic Cells ED Cont.” value was 1.32E−04 mSv/MBq, the “Osteogenic Cells EDE Cont.” value was 3.97E−04 mSv/MBq and the “Osteogenic Cells dose Alpha” value was 0.00E000 mSv/MBq. The “Osteogenic Cells dose Beta” value was 6.70E−03 mSv/MBq, the “Osteogenic Cells dose Photon” value was 6.52E−03 mSv/MBq and the “Osteogenic Cells dose Total” value was 1.32E−02 mSv/MBq. For the same compound, the “Ovaries ED Cont.” value was 3.14E−03 mSv/MBq, the “Ovaries EDE Cont.” value was 3.92E−03 mSv/MBq and the “Ovaries dose Alpha” value was 0.00E000 mSv/MBq. For the same compound, the “Ovaries dose Beta” value was 3.12E−03 mSv/MBq, the “Ovaries dose Photon” value was 1.26E−02 mSv/MBq and the “Ovaries dose Total” value was 1.57E−02 mSv/MBq. The “Pancreas ED Cont.” value was 5.70E−05 mSv/MBq, the “Pancreas EDE Cont.” value was 0.00E000 mSv/MBq and the “Pancreas dose Alpha” value was 0.00E000 mSv/MBq. For the same compound, the “Pancreas dose Beta” value was 3.12E−03 mSv/MBq, the “Pancreas dose Photon” value was 8.29E−03 mSv/MBq and the “Pancreas dose Total” value was 1.14E−02 mSv/MBq. The “Red Marrow ED Cont.” value was 1.08E−03 mSv/MBq, the “Red Marrow EDE Cont.” value was 1.08E−03 mSv/MBq and the “Red Marrow dose Alpha” value was 0.00E000 mSv/MBq. For the same compound, the “Red Marrow dose Beta” value was 2.22E−03 mSv/MBq, the “Red Marrow dose Photon” value was 6.79E−03 mSv/MBq and the “Red Marrow dose Total” value was 9.01E−03 mSv/MBq. The “Skin ED Cont.” value was 6.95E−05 mSv/MBq, the “Skin EDE Cont.” value was 0.00E000 mSv/MBq and the “Skin dose Alpha” value was 0.00E000 mSv/MBq. For the same compound, the “Skin dose Beta” value was 3.12E−03 mSv/MBq, the “Skin dose Photon” value was 3.83E−03 mSv/MBq and the “Skin dose Total” value was 6.95E−03 mSv/MBq. The “Small Intestine ED Cont.” value was 6.27E−05 mSv/MBq, the “Small Intestine EDE Cont.” value was 0.00E000 mSv/MBq and the “Small Intestine dose Alpha” value was 0.00E000 mSv/MBq. The “Small Intestine dose Beta” value was 3.12E−03 mSv/MBq, the “Small Intestine dose Photon” value was 9.42E−03 mSv/MBq and the “Small Intestine dose Total” value was 1.25E−02 mSv/MBq. The “Spleen ED Cont.” value was 1.34E−04 mSv/MBq, the “Spleen EDE Cont.” value was 1.60E−03 mSv/MBq and the “Spleen dose Alpha” value was 0.00E000 mSv/MBq. The “Spleen dose Beta” value was 1.52E−02 mSv/MBq, the “Spleen dose Photon” value was 1.15E−02 mSv/MBq and the “Spleen dose Total” value was 2.67E−02 mSv/MBq. For the same compound, the “Stomach Wall ED Cont.” value was 1.22E−03 mSv/MBq, the “Stomach Wall EDE Cont.” value was 0.00E000 mSv/MBq and the “Stomach Wall dose Alpha” value was 0.00E000 mSv/MBq. The “Stomach Wall dose Beta” value was 3.12E−03 mSv/MBq, the “Stomach Wall dose Photon” value was 7.02E−03 mSv/MBq and the “Stomach Wall dose Total” value was 1.01E−02 mSv/MBq. For the same compound, the “Testes ED Cont.” value was 0.00E000 mSv/MBq, the “Testes EDE Cont.” value was 0.00E000 mSv/MBq and the “Testes dose Alpha” value was 0.00E000 mSv/MBq. For the same compound, the “Testes dose Beta” value was 3.12E−03 mSv/MBq, the “Testes dose Photon” value was 8.96E−03 mSv/MBq and the “Testes dose Total” value was 1.21E−02 mSv/MBq. For the same compound, the “Thymus ED Cont.” value was 4.10E−05 mSv/MBq, the “Thymus EDE Cont.” value was 0.00E000 mSv/MBq and the “Thymus dose Alpha” value was 0.00E000 mSv/MBq. For the same compound, the “Thymus dose Beta” value was 3.12E−03 mSv/MBq, the “Thymus dose Photon” value was 5.08E−03 mSv/MBq and the “Thymus dose Total” value was 8.20E−03 mSv/MBq. For the same compound, the “Thyroid ED Cont.” value was 4.14E−04 mSv/MBq, the “Thyroid EDE Cont.” value was 2.48E−04 mSv/MBq and the “Thyroid dose Alpha” value was 0.00E000 mSv/MBq. The “Thyroid dose Beta” value was 3.12E−03 mSv/MBq, the “Thyroid dose Photon” value was 5.15E−03 mSv/MBq and the “Thyroid dose Total” value was 8.27E−03 mSv/MBq. For the same compound, the “Total Body ED Cont.” value was 0.00E000 mSv/MBq, the “Total Body EDE Cont.” value was 0.00E000 mSv/MBq and the “Total Body dose Alpha” value was 0.00E000 mSv/MBq. The “Total Body dose Beta” value was 3.52E−03 mSv/MBq, the “Total Body dose Photon” value was 6.33E−03 mSv/MBq and the “Total Body dose Total” value was 9.86E−03 mSv/MBq. For the same compound, the “ULI Wall ED Cont.” value was 5.85E−05 mSv/MBq, the “ULI Wall EDE Cont.” value was 0.00E000 mSv/MBq and the “ULI Wall dose Alpha” value was 0.00E000 mSv/MBq. For the same compound, the “ULI Wall dose Beta” value was 3.12E−03 mSv/MBq, the “ULI Wall dose Photon” value was 8.57E−03 mSv/MBq and the “ULI Wall dose Total” value was 1.17E−02 mSv/MBq. For the same compound, the “Urinary Bladder Wall ED Cont.” value was 1.14E−02 mSv/MBq, the “Urinary Bladder Wall EDE Cont.” value was 1.36E−02 mSv/MBq and the “Urinary Bladder Wall dose Alpha” value was 0.00E000 mSv/MBq. For the same compound, the “Urinary Bladder Wall dose Beta” value was 1.56E−01 mSv/MBq, the “Urinary Bladder Wall dose Photon” value was 7.14E−02 mSv/MBq and the “Urinary Bladder Wall dose Total” value was 2.27E−01 mSv/MBq. For the same compound, the “Uterus ED Cont.” value was 1.18E−04 mSv/MBq, the “Uterus EDE Cont.” value was 1.41E−03 mSv/MBq and the “Uterus dose Alpha” value was 0.00E000 mSv/MBq. The “Uterus dose Beta” value was 3.12E−03 mSv/MBq, the “Uterus dose Photon” value was 2.04E−02 mSv/MBq and the “Uterus dose Total” value was 2.36E−02 mSv/MBq.
